Reference: patent US10131652B2, “Pyrimidinyloxy benzene derivatives as herbicides” (E. I. DU PONT DE NEMOURS AND COMPANY, priority 2014, dated 2018)
Like-named read-outs stand apart in the source and are kept apart here.

Legend:
Assay in all cases: Test E pre-/postemergence plant response
Assay type in all cases: in vivo
[1] = test system: lambsquarters (Chenopodium album); details: scale 0 to 100, read-out: Plant response rating, Lambsquarters; for pest or weed control at 16 g/ha: 16 g ai/ha; for pest or weed control at 31 g/ha: 31 g ai/ha; for pest or weed control at 62 g/ha: 62 g ai/ha; for pest or weed control at 125 g/ha: 125 g ai/ha
Method in brief: (§1)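 Visual scores on a 0–100 scale (100 = complete control) were assigned against untreated controls 7–21 days after treatment in a controlled environment. Compounds, formulated with solvent plus surfactant, were applied to pre-emergence silt-loam sowings or to 1- to 4-leaf plants (2–18 cm) in potting medium.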

[2] = test system: Italian ryegrass (Lolium multiflorum); details: scale 0 to 100, read-out: Plant response rating, Ryegrass, Italian; for pest or weed control at 16 g/ha: 16 g ai/ha; for pest or weed control at 31 g/ha: 31 g ai/ha; for pest or weed control at 62 g/ha: 62 g ai/ha; for pest or weed control at 125 g/ha: 125 g ai/ha
Method in brief: as §1

[3] = test system: wild radish (Raphanus raphanistrum); details: scale 0 to 100, read-out: Plant response rating, Radish, Wild; for pest or weed control at 16 g/ha: 16 g ai/ha; for pest or weed control at 31 g/ha: 31 g ai/ha; for pest or weed control at 62 g/ha: 62 g ai/ha; for pest or weed control at 125 g/ha: 125 g ai/ha
Method in brief: as §1

[4] = test system: galium (catchweed bedstraw, Galium aparine); details: scale 0 to 100, read-out: Plant response rating, Galium; for pest or weed control at 16 g/ha: 16 g ai/ha; for pest or weed control at 31 g/ha: 31 g ai/ha; for pest or weed control at 62 g/ha: 62 g ai/ha; for pest or weed control at 125 g/ha: 125 g ai/ha
Method in brief: as §1

[5] = test system: speedwell (bird's-eye speedwell, Veronica persica); details: scale 0 to 100, read-out: Plant response rating, Speedwell; for pest or weed control at 16 g/ha: 16 g ai/ha; for pest or weed control at 62 g/ha: 62 g ai/ha; for pest or weed control at 125 g/ha: 125 g ai/ha
Method in brief: as §1

[6] = test system: chickweed (common chickweed, Stellaria media); details: scale 0 to 100, read-out: Plant response rating, Chickweed; for pest or weed control at 16 g/ha: 16 g ai/ha; for pest or weed control at 31 g/ha: 31 g ai/ha; for pest or weed control at 62 g/ha: 62 g ai/ha; for pest or weed control at 125 g/ha: 125 g ai/ha
Method in brief: as §1

[7] = test system: spring wheat (Triticum aestivum); details: scale 0 to 100, read-out: Plant response rating, Wheat, Spring; for plant injury at 16 g/ha: 16 g ai/ha; for plant injury at 62 g/ha: 62 g ai/ha; for plant injury at 125 g/ha: 125 g ai/ha
Method in brief: as §1

[8] = test system: winter wheat (Triticum aestivum); details: scale 0 to 100, read-out: Plant response rating, Wheat, Winter; for plant injury at 16 g/ha: 16 g ai/ha; for plant injury at 62 g/ha: 62 g ai/ha; for plant injury at 125 g/ha: 125 g ai/ha
Method in brief: as §1

[9] = test system: field violet (Viola arvensis); details: scale 0 to 100, read-out: Plant response rating, Field Violet; for pest or weed control at 16 g/ha: 16 g ai/ha; for pest or weed control at 31 g/ha: 31 g ai/ha; for pest or weed control at 62 g/ha: 62 g ai/ha; for pest or weed control at 125 g/ha: 125 g ai/ha
Method in brief: as §1

[10] = test system: bluegrass (annual bluegrass, Poa annua); details: scale 0 to 100, read-out: Plant response rating, Bluegrass; for pest or weed control at 16 g/ha: 16 g ai/ha; for pest or weed control at 31 g/ha: 31 g ai/ha; for pest or weed control at 62 g/ha: 62 g ai/ha; for pest or weed control at 125 g/ha: 125 g ai/ha
Method in brief: as §1

[11] = test system: spring barley (Hordeum vulgare); details: for plant injury at 16 g/ha: 16 g ai/ha; for plant injury at 31 g/ha: 31 g ai/ha; for plant injury at 62 g/ha: 62 g ai/ha; for plant injury at 125 g/ha: 125 g ai/ha
Method in brief: as §1

[12] = post-emergence, 31 g ai/ha, Postemergence
[13] = post-emergence, Postemergence, scale 0 to 100, read-out: Plant response rating, Barley, Spring
[14] = pre-emergence, Preemergence, scale 0 to 100, read-out: Plant response rating, Barley, Spring

SMILES: Fc1cccc(Oc2ncc(Cl)cn2)c1-c1cc(C(F)(F)F)on1 [Compound 168, 5-chloro-2-[2-[5-(trifluoromethyl)-3-isoxazolyl]-3-fluorophenoxy]pyrimidine]
- pest or weed control at 16 g/ha ([1]; post-emergence, Postemergence): 75%
- pest or weed control at 31 g/ha ([1]; post-emergence, Postemergence): 85%
- pest or weed control at 62 g/ha ([1]; post-emergence, Postemergence): 90%
- pest or weed control at 125 g/ha ([1]; post-emergence, Postemergence): 95%
- pest or weed control at 16 g/ha ([1]; pre-emergence, Preemergence): 45%
- pest or weed control at 31 g/ha ([1]; pre-emergence, Preemergence): 100%
- pest or weed control at 62 g/ha ([1]; pre-emergence, Preemergence): 100%
- pest or weed control at 125 g/ha ([1]; pre-emergence, Preemergence): 100%
- pest or weed control at 16 g/ha ([2]; post-emergence, Postemergence): 5%
- pest or weed control at 31 g/ha ([2]; post-emergence, Postemergence): 10%
- pest or weed control at 62 g/ha ([2]; post-emergence, Postemergence): 20%
- pest or weed control at 125 g/ha ([2]; post-emergence, Postemergence): 25%
- pest or weed control at 16 g/ha ([2]; pre-emergence, Preemergence): 0%
- pest or weed control at 31 g/ha ([2]; pre-emergence, Preemergence): 0%
- pest or weed control at 62 g/ha ([2]; pre-emergence, Preemergence): 30%
- pest or weed control at 125 g/ha ([2]; pre-emergence, Preemergence): 75%
- pest or weed control at 16 g/ha ([3]; post-emergence, Postemergence): 70%
- pest or weed control at 31 g/ha ([3]; post-emergence, Postemergence): 75%
- pest or weed control at 62 g/ha ([3]; post-emergence, Postemergence): 80%
- pest or weed control at 125 g/ha ([3]; post-emergence, Postemergence): 85%
- pest or weed control at 16 g/ha ([3]; pre-emergence, Preemergence): 0%
- pest or weed control at 31 g/ha ([3]; pre-emergence, Preemergence): 45%
- pest or weed control at 62 g/ha ([3]; pre-emergence, Preemergence): 100%
- pest or weed control at 125 g/ha ([3]; pre-emergence, Preemergence): 100%
- pest or weed control at 16 g/ha ([4]; post-emergence, Postemergence): 75%
- pest or weed control at 31 g/ha ([4]; post-emergence, Postemergence): 75%
- pest or weed control at 62 g/ha ([4]; post-emergence, Postemergence): 80%
- pest or weed control at 125 g/ha ([4]; post-emergence, Postemergence): 85%
- pest or weed control at 16 g/ha ([4]; pre-emergence, Preemergence): 60%
- pest or weed control at 31 g/ha ([4]; pre-emergence, Preemergence): 60%
- pest or weed control at 62 g/ha ([4]; pre-emergence, Preemergence): 100%
- pest or weed control at 125 g/ha ([4]; pre-emergence, Preemergence): 100%
- pest or weed control at 16 g/ha ([5]; post-emergence, Postemergence): 80%
- pest or weed control at 31 g/ha [5, 12]: 75%
- pest or weed control at 62 g/ha ([5]; post-emergence, Postemergence): 90%
- pest or weed control at 125 g/ha ([5]; post-emergence, Postemergence): 100%
- pest or weed control at 16 g/ha ([5]; pre-emergence, Preemergence): 100%
- pest or weed control at 62 g/ha ([5]; pre-emergence, Preemergence): 100%
- pest or weed control at 125 g/ha ([5]; pre-emergence, Preemergence): 100%
- pest or weed control at 16 g/ha ([6]; post-emergence, Postemergence): 50%
- pest or weed control at 31 g/ha ([6]; post-emergence, Postemergence): 45%
- pest or weed control at 62 g/ha ([6]; post-emergence, Postemergence): 70%
- pest or weed control at 125 g/ha ([6]; post-emergence, Postemergence): 90%
- pest or weed control at 16 g/ha ([6]; pre-emergence, Preemergence): 100%
- pest or weed control at 31 g/ha ([6]; pre-emergence, Preemergence): 80%
- pest or weed control at 62 g/ha ([6]; pre-emergence, Preemergence): 100%
- pest or weed control at 125 g/ha ([6]; pre-emergence, Preemergence): 100%
- plant injury at 16 g/ha ([7]; post-emergence, Postemergence): 10%
- plant injury at 31 g/ha [7, 12]: 20%
- plant injury at 62 g/ha ([7]; post-emergence, Postemergence): 25%
- plant injury at 125 g/ha ([7]; post-emergence, Postemergence): 40%
- plant injury at 16 g/ha ([7]; pre-emergence, Preemergence): 15%
- plant injury at 62 g/ha ([7]; pre-emergence, Preemergence): 20%
- plant injury at 125 g/ha ([7]; pre-emergence, Preemergence): 30%
- plant injury at 16 g/ha ([8]; post-emergence, Postemergence): 5%
- plant injury at 31 g/ha [8, 12]: 10%
- plant injury at 62 g/ha ([8]; post-emergence, Postemergence): 25%
- plant injury at 125 g/ha ([8]; post-emergence, Postemergence): 35%
- plant injury at 16 g/ha ([8]; pre-emergence, Preemergence): 5%
- plant injury at 62 g/ha ([8]; pre-emergence, Preemergence): 10%
- plant injury at 125 g/ha ([8]; pre-emergence, Preemergence): 30%
- pest or weed control at 16 g/ha ([9]; post-emergence, Postemergence): 75%
- pest or weed control at 31 g/ha ([9]; post-emergence, Postemergence): 75%
- pest or weed control at 62 g/ha ([9]; post-emergence, Postemergence): 90%
- pest or weed control at 125 g/ha ([9]; post-emergence, Postemergence): 95%
- pest or weed control at 16 g/ha ([9]; pre-emergence, Preemergence): 85%
- pest or weed control at 31 g/ha ([9]; pre-emergence, Preemergence): 100%
- pest or weed control at 62 g/ha ([9]; pre-emergence, Preemergence): 100%
- pest or weed control at 125 g/ha ([9]; pre-emergence, Preemergence): 100%
- pest or weed control at 16 g/ha ([10]; post-emergence, Postemergence): 10%
- pest or weed control at 31 g/ha ([10]; post-emergence, Postemergence): 5%
- pest or weed control at 62 g/ha ([10]; post-emergence, Postemergence): 10%
- pest or weed control at 125 g/ha ([10]; post-emergence, Postemergence): 15%
- pest or weed control at 16 g/ha ([10]; pre-emergence, Preemergence): 0%
- pest or weed control at 31 g/ha ([10]; pre-emergence, Preemergence): 10%
- pest or weed control at 62 g/ha ([10]; pre-emergence, Preemergence): 80%
- pest or weed control at 125 g/ha ([10]; pre-emergence, Preemergence): 100%
- plant injury at 16 g/ha [11, 13]: 10%
- plant injury at 31 g/ha [11, 13]: 15%
- plant injury at 62 g/ha [11, 13]: 15%
- plant injury at 125 g/ha ([11]; post-emergence, Postemergence, scale 0 to 100 (0 no effect, 100 complete control), read-out: Plant response rating, Barley, Spring): 25%
- plant injury at 16 g/ha [11, 14]: 0%
- plant injury at 31 g/ha [11, 14]: 15%
- plant injury at 62 g/ha [11, 14]: 30%
- plant injury at 125 g/ha [11, 14]: 35%
